Experiments:
Type in all cases: functional
Pseudomonas aeruginosa = test: Inhibition of swarming motility of Pseudomonas aeruginosa HONKR at 16 ug/mL incubated for 16 to 20 hrs relative to control
Escherichia coli [1] = test: Inhibition of swarming motility of Escherichia coli PY31 at 16 ug/mL incubated for 16 to 20 hrs relative to control
Escherichia coli [2] = test: Antibiofilm activity against Escherichia coli UTI89 incubated for 2 days at 23 degC followed by 1 day incubation at RT

Row | SMILES | inhibition at 16 µg/mL (Pseudomonas aeruginosa) [%] | inhibition at 16 µg/mL (Escherichia coli [1]) [%] | MBIC50 (Escherichia coli [2])
1 | C[C@H]1[C@H](C)CC[C@]2(C(=O)O)CC[C@]3(C)C(=CC[C@@H]4[C@@]5(C)[C@H](O)[C@@H](O)[C@@H](O)[C@](C)(CO)[C@@H]5CC[C@]43C)[C@H]12 | 80 | – | –
2 | CC1(C)CC[C@]2(C(=O)O)CC[C@]3(C)C(=CC[C@@H]4[C@@]5(C)C[C@@H](c6ncc[nH]6)[C@H](O)C(C)(C)[C@@H]5CC[C@]43C)[C@@H]2C1 | < 20 | > 90 | 16 µg/mL
3 | CN1C[C@@H]2C[C@]3(C)[C@H]4CC=C5[C@@H]6CC(C)(C)CC[C@]6(C(=O)O)CC[C@@]5(C)[C@]4(C)CC[C@H]3C(C)(C)[C@H]2OC1=O | < 20 | < 20 | >=32 ug ml-1
4 | C[C@H]1[C@H](C)CC[C@]2(C(=O)O)CC[C@]3(C)C(=CC[C@@H]4[C@@]5(C)C[C@@H](O)[C@H](O)[C@@](C)(CO)[C@@H]5[C@H](O)C[C@]43C)[C@H]12 [MADECASSIC ACID] | 90 | – | –
5 | C=C(C)[C@@H]1CC[C@]2(C(=O)O)CC[C@]3(C)[C@H](CC[C@@H]4[C@@]5(C)CC[C@H](O)C(C)(C)[C@@H]5CC[C@]43C)[C@@H]12 [BETULINIC ACID] | 80 | – | –
6 | CC1(C)CC[C@]2(C(=O)O)CC[C@]3(C)C(=CC[C@@H]4[C@@]5(C)C[C@@H](C6=NCCCN6)[C@H](O)C(C)(C)[C@@H]5CC[C@]43C)[C@@H]2C1 | < 20 | 60 | 4 µg/mL
7 | CCN(C[C@@H]1C[C@]2(C)[C@H]3CC=C4[C@@H]5CC(C)(C)CC[C@]5(C(=O)O)CC[C@@]4(C)[C@]3(C)CC[C@H]2C(C)(C)[C@H]1O)C(C)=O | < 20 | 30 | 4 µg/mL
8 | CC(=O)N(C(C)=O)c1ncc2c(n1)C(C)(C)[C@@H]1CC[C@]3(C)[C@H](CC=C4[C@@H]5CC(C)(C)CC[C@]5(C(=O)O)CC[C@]43C)[C@@]1(C)C2 | 90 | 70 | 8 µg/mL
9 | CC1(C)CC[C@]2(C(=O)O)CC[C@]3(C)C(=CC[C@@H]4[C@@]5(C)C[C@@H](C(=O)N6CCOCC6)[C@H](O)C(C)(C)[C@@H]5CC[C@]43C)[C@@H]2C1 | < 20 | < 20 | 4 µg/mL
10 | CC1(C)CC[C@]2(C(=O)O)CC[C@]3(C)C(=CC[C@@H]4[C@@]5(C)C[C@@H](C(=O)NC6CC6)[C@H](O)C(C)(C)[C@@H]5CC[C@]43C)[C@@H]2C1 | < 20 | 70 | 4 µg/mL
11 | CC1(C)CC[C@]2(C(=O)O)CC[C@]3(C)C(=CC[C@@H]4[C@@]5(C)Cc6cnc(N)nc6C(C)(C)[C@@H]5CC[C@]43C)[C@@H]2C1 | 80 | 90 | >=32 ug ml-1
12 | CC1(C)CC[C@]2(C(=O)O)CC[C@]3(C)C(=CC[C@@H]4[C@@]5(C)Cc6c(O)nc(N)nc6C(C)(C)[C@@H]5CC[C@]43C)[C@@H]2C1 | 90 | > 90 | >=32 ug ml-1
13 | CC1(C)CC[C@]2(C(=O)O)CC[C@]3(C)C(=CC[C@@H]4[C@@]5(C)C[C@@H](C6=NCCO6)[C@H](O)C(C)(C)[C@@H]5CC[C@]43C)[C@@H]2C1 | < 20 | < 20 | 8 µg/mL
14 | C[C@H]1[C@H](C)CC[C@]2(CO)CC[C@]3(C)C(=CC[C@@H]4[C@@]5(C)CC[C@H](O)C(C)(C)[C@@H]5CC[C@]43C)[C@H]12 [UVAOL] | < 20 | – | –
15 | C=C(C)[C@@H]1CC[C@]2(C)CC[C@]3(C)[C@H](CC[C@@H]4[C@@]5(C)CC[C@H](O)C(C)(C)[C@@H]5CC[C@]43C)[C@@H]12 [LUPEOL] | < 20 | – | –
16 | CN1CCN=C1[C@@H]1C[C@]2(C)[C@H]3CC=C4[C@@H]5CC(C)(C)CC[C@]5(C(=O)O)CC[C@@]4(C)[C@]3(C)CC[C@H]2C(C)(C)[C@H]1O | > 20 | < 20 | >=32 ug ml-1
17 | CC(C)CN(C)C[C@@H]1C[C@]2(C)[C@H]3CC=C4[C@@H]5CC(C)(C)CC[C@]5(C(=O)O)CC[C@@]4(C)[C@]3(C)CC[C@H]2C(C)(C)[C@H]1O | < 20 | 90 | >=32 ug ml-1
18 | C[C@H]1[C@H](C)CC[C@]2(C(=O)O)CC[C@]3(C)C(=CC[C@@H]4[C@@]5(C)C[C@@H](O)[C@@H](O)C(C)(C)[C@@H]5CC[C@]43C)[C@H]12 [PYGENIC ACID A] | > 90 | – | –
19 | CN(C)C(=O)[C@@H]1C[C@]2(C)[C@H]3CC=C4[C@@H]5CC(C)(C)CC[C@]5(C(=O)O)CC[C@@]4(C)[C@]3(C)CC[C@H]2C(C)(C)[C@H]1O | < 20 | < 20 | 4 µg/mL
20 | C[C@H]1[C@H](C)CC[C@]2(C(=O)O)CC[C@]3(C)C(=CC[C@@H]4[C@@]5(C)CC[C@H](O)C(C)(C)[C@@H]5CC[C@]43C)[C@H]12 [URSOLIC ACID] | > 90 | – | –
21 | CN(C)C[C@@H]1C[C@]2(C)[C@H]3CC=C4[C@@H]5CC(C)(C)CC[C@]5(C(=O)O)CC[C@@]4(C)[C@]3(C)CC[C@H]2C(C)(C)[C@H]1O | < 20 | 70 | >=32 ug ml-1
22 | CCCN(C)C(=O)[C@@H]1C[C@]2(C)[C@H]3CC=C4[C@@H]5CC(C)(C)CC[C@]5(C(=O)O)CC[C@@]4(C)[C@]3(C)CC[C@H]2C(C)(C)[C@H]1O | < 20 | 50 | 4 µg/mL
23 | C[C@H]1[C@H](C)CC[C@]2(C(=O)O)CC[C@]3(C)C(=CC[C@@H]4[C@@]5(C)C[C@@H](O)[C@@H](O)[C@](C)(CO)[C@@H]5CC[C@]43C)[C@H]12 | 90 | – | –
24 | Cn1ccnc1[C@@H]1C[C@]2(C)[C@H]3CC=C4[C@@H]5CC(C)(C)CC[C@]5(C(=O)O)CC[C@@]4(C)[C@]3(C)CC[C@H]2C(C)(C)[C@H]1O | < 20 | 80 | >=32 ug ml-1
25 | C[C@H]1[C@H](C)CC[C@]2(C(=O)O)CC[C@]3(C)C(=CC[C@@H]4[C@@]5(C)C[C@@H](O)[C@H](O)[C@@](C)(CO)[C@@H]5CC[C@]43C)[C@H]12 [ASIATIC ACID] | 70 | – | –
26 | COC(=O)[C@]12CCC(C)(C)C[C@H]1C1=CC[C@@H]3[C@@]4(C)CC[C@H](O)C(C)(C)[C@@H]4CC[C@@]3(C)[C@]1(C)CC2 [METHYL OLEANOLATE] | 30 | – | –
27 | CNC(=O)[C@@H]1C[C@]2(C)[C@H]3CC=C4[C@@H]5CC(C)(C)CC[C@]5(C(=O)O)CC[C@@]4(C)[C@]3(C)CC[C@H]2C(C)(C)[C@H]1O | < 20 | < 20 | 4 µg/mL
28 | CC1(C)CC[C@]2(C(=O)O)CC[C@]3(C)C(=CC[C@@H]4[C@@]5(C)C[C@@H](C6=NCCN6)[C@H](O)C(C)(C)[C@@H]5CC[C@]43C)[C@@H]2C1 | < 20 | > 90 | >=32 ug ml-1

— ChEMBL document CHEMBL4627274, “Optimized plant compound with potent anti-biofilm activity across gram-negative species” (Bioorg Med Chem, 2020)
